Experimental data reported in US20260115331A1, “PET IMAGING OF BACTERIAL INFECTION WITH A PET PROBE” (Mayo Foundation for Medical Education and Research, priority 2022, published 2026).

Experiments:
[1] = PET image analysis (SUV) of inflamed tibia in foreign body inflammation rat model; format: in vivo, rats; conditions: each time point up to 120 minutes (FIG. 27)
Procedure: (§1) The PET probe [^68Ga]Ga-H3P2O8 was evaluated in methicillin-resistant S. aureus (MRSA) foreign-body osteomyelitis in the left tibia with a stainless steel Kirschner wire (K-wire) implant in male Wister rats, following a previously established protocol [Ref. 17]. Briefly, a 1 cm incision was made on the medial tibia and the bone exposed. A 1.5 mm hole was drilled, 0.01 mL of arachidonic acid (a sclerosing agent) and 0.05 mL of a suspension containing MRSA DRL-6169 at 10^8 cfu/mL was injected into the bone. A 5 mm threaded stainless-steel K-wire was inserted. The hole was closed with dental gypsum and the site closed. After implantation, the muscle and fascia were closed with 3-0 vicryl using simple interrupted sutures. The skin was closed with sterile wound clips and VetBond. The wound was sprayed with Aluspray and Chew Guard. After 7 days of implantation of wire, the animal was put on iron-deficient diet for 7 days and on the day of imaging, the animals were fasted for 4 hours prior to the injection of the PET probe. [^68Ga]Ga-H3P2O8 (32.81±6.28 MBq, n=18) were injected into the rat model via tail vein injection. The rat model was either a normal rat model or an osteomyelitis foreign body rat model or an inflamed foreign body rat model. PET/CT images were acquired at 15 minutes, 30 minutes, 60 minutes, and 120 minutes post-injection using Siemens Inveon MicroPET/CT Scanner (see FIGS. 17, 18, and Table 2).
To assess the preferential uptake of novel [^68Ga]Ga-H3P2O8 PET probe in infection as compared to inflammation, the same surgery and imaging was performed but omitted the MRSA. […] The probe [^68Ga]Ga-H3P2O8 was also successfully used to detect thigh infection caused by E coli in a mouse model.
To further investigate the selectivity of [^68Ga]Ga-H3P2O8 for imaging infection over inflammation, this novel probe was compared to other PET imaging probes, [^68Ga]Ga-Citrate and [^18F]FDG in an inflammation model. In a side-by-side study, all three probes were used to image inflammation (i.e., an inflamed tibia) in an osteomyelitis foreign body rat model.

[2] = PET/CT image analysis (SUV) in normal rat model; format: in vivo, rats; conditions: for SUV (Average ± SD), Normal Tibia: Normal group
Procedure: as §1
(§2) The acquired PET images were visualized and analyzed for quantifying standardized uptake value (SUV) using image analysis software—MIM 7 software and PMOD. Following final imaging at 120 minutes post-injection, the animal was euthanized, and major organs and infected and inflamed tibia were extracted for gamma counting for ex-vivo biodistribution analysis (see FIG. 22). At the end of last imaging session, rats were euthanized by cardiectomy, and the operated tibia with K-wire or contralateral tibia were aseptically removed. Following removal, tibias were weighed, and Ga-68 radioactivity was counted in 2480 Wizard2 automatic gamma counter for ex-vivo biodistribution assessment. The tibias were then frozen to −80° C. The frozen tibia from each animal was crushed aseptically using a bone pulverizer chilled at −80° C. The crushed tibia without K wire was weighed and vortexed in 1 mL sterile saline. The K wire was also vortexed in 1.0 mL sterile saline separately. The vortexed tibia and K-wire saline suspension were sonicated for 5 minutes. After sonication, 1:10 serial dilutions were prepared in saline and 0.1 mL of each dilution was plated in Trypticase Soy Agar plates with 5% Sheep Blood (TSA II). After 24 hours of incubation at 37° C., the bacterial cultures in tibia suspension and K-wire suspension were quantified. In the 2-week-old osteomyelitis model used in the study, the infected tibia contained 7.00±0.19 log10 cfu/g tibia (n=10) and 5.41±0.40 log10 cfu/K-wire (n=10).

[3] = Biodistribution in normal mice at 120 min post injection; format: in vivo; conditions: N = 5, 120 min post injection
Text: The feasibility of the developed PET probe [^68Ga]Ga-H3P2O8 in a mouse model of thigh infection as well as uptake in E. coli has been evaluated. […] The biodistribution of developed PET probe in normal and in thigh infected mice has been assessed (see FIG. 11). […] Micro-PET imaging of normal and thigh-infected mice has also been performed. The site of bacterial infection was evident on micro-PET images (see FIG. 13) with arrows in contrast to the non-infected group of mice. The bacterial site of infection on micro-PET images was confirmed by bacterial culture performed on the biopsied sample. Micro-PET imaging was performed at different time intervals to optimize imaging time.

[4] = tested on: Klebsiella pneumoniae (K. pneumoniae); test: Ex vivo biodistribution in osteomyelitis foreign body rat model with K. pneumoniae infection vs inflammation model; design: species or system rats; conditions: 120 minutes post-injection, comparable SUVs except bladder and feces (FIG. 34)
Procedure: as §2, with “In the 2-week-old osteomyelitis model used in the study, the infected tibia contained 7.00±0.19 log10 cfu/g tibia (n=10) and 5.41±0.40 log10 cfu/K-wire (n=10).” left out

[5] = tested on: Methicillin-resistant Staphylococcus aureus (MRSA); test: Ex vivo biodistribution SUV ratios (operated tibia/contralateral tibia), MRSA infection and inflammation; format: in vivo, rats; conditions: 120 minutes post-injection, p<0.05 (FIG. 31)
Procedure: The acquired PET images were visualized and analyzed for quantifying standardized uptake value (SUV) using image analysis software—MIM 7 software and PMOD. Following final imaging at 120 minutes post-injection, the animal was euthanized, and major organs and infected and inflamed tibia were extracted for gamma counting for ex-vivo biodistribution analysis (see FIG. 22). At the end of last imaging session, rats were euthanized by cardiectomy, and the operated tibia with K-wire or contralateral tibia were aseptically removed. Following removal, tibias were weighed, and Ga-68 radioactivity was counted in 2480 Wizard2 automatic gamma counter for ex-vivo biodistribution assessment. The tibias were then frozen to −80° C. […] After 24 hours of incubation at 37° C., the bacterial cultures in tibia suspension and K-wire suspension were quantified. […]
Turning now to FIG. 28, the localization of [^68Ga]Ga-H3P2O8 at an infection was investigated in comparison to [^68Ga]Ga-Citrate and [^18F]FDG. The uptake of [^68Ga]Ga-H3P2O8, [^68Ga]Ga-citrate and [^18F]FDG at 120 minutes post-injection in areas of Methicillin-resistant Staphylococcus aureus (MRSA) infection was determined by ex vivo biodistribution. Additionally, the uptake of [^68Ga]Ga-H3P2O8, [^68Ga]Ga-citrate and [^18F]FDG at 120 minutes post-injection in an inflammation was determined similarly. […]

O=P(O)(O)[O][Ga]1[O]P(=O)(O)[O]1 [[^68Ga]Ga-H3P2O8, [^68Ga]Ga-hydrogen bisphosphate]
difference in mean SUV between the probes in inflamed tibia [1]: no significant difference
SUV (Average ± SD), Normal Tibia ([2]; n = 4, 15 min post-injection): 0.76 ± 0.03 SUV
SUV (Average ± SD), Normal Tibia ([2]; n = 4, 30 min post-injection): 0.76 ± 0.09 SUV
SUV (Average ± SD), Normal Tibia ([2]; n = 4, 60 min post-injection): 0.80 ± 0.09 SUV
SUV (Average ± SD), Normal Tibia ([2]; n = 4, 120 min post-injection): 0.89 ± 0.16 SUV
SUV (Average ± SD), Muscle in Normal group ([2]; n = 4, 15 min post-injection): 0.35 ± 0.10 SUV
SUV (Average ± SD), Muscle in Normal group ([2]; n = 4, 30 min post-injection): 0.50 ± 0.12 SUV
SUV (Average ± SD), Muscle in Normal group ([2]; n = 4, 60 min post-injection): 0.49 ± 0.10 SUV
SUV (Average ± SD), Muscle in Normal group ([2]; n = 4, 120 min post-injection): 0.48 ± 0.09 SUV
SUV ± STD, Adipose ([3]; Adipose): 0.76 ± 0.38 SUV
SUV ± STD, Bladder ([3]; Bladder): 2.41 ± 2.84 SUV
SUV ± STD, Blood ([3]; Blood): 2.76 ± 0.97 SUV
SUV ± STD, Bone ([3]; Bone): 1.88 ± 1.26 SUV
SUV ± STD, Brain ([3]; Brain): 0.07 ± 0.02 SUV
SUV ± STD, Cecum ([3]; Cecum): 1.33 ± 0.60 SUV
SUV ± STD, Eye ([3]; Eye): 2.30 ± 1.41 SUV
SUV ± STD, Feces ([3]; Feces): 0.82 ± 0.28 SUV
SUV ± STD, Gut ([3]; Gut): 1.15 ± 0.29 SUV
SUV ± STD, Heart ([3]; Heart): 0.87 ± 0.30 SUV
SUV ± STD, Kidney-1 ([3]; Kidney-1): 1.11 ± 0.29 SUV
SUV ± STD, Kidney-2 ([3]; Kidney-2): 0.71 ± 0.20 SUV
SUV ± STD, Liver ([3]; Liver): 1.05 ± 0.42 SUV
SUV ± STD, Lung-1 ([3]; Lung-1): 2.17 ± 0.85 SUV
SUV ± STD, Lung-2 ([3]; Lung-2): 3.22 ± 2.29 SUV
SUV ± STD, Normal Thigh ([3]; Normal Thigh): 0.52 ± 0.23 SUV
SUV ± STD, Skin ([3]; Skin): 0.71 ± 0.38 SUV
SUV ± STD, Spleen ([3]; Spleen): 0.70 ± 0.16 SUV
SUV ± STD, Stomach ([3]; Stomach): 0.49 ± 0.24 SUV
distribution in organs/excrement of infected model compared with inflammation model [4]: similar
uptake as SUV ratios (Operated tibia/contralateral tibia), MRSA vs P. aeruginosa [5]: significant difference in uptake
